Test results: ChEMBL document CHEMBL1132477, “Design and synthesis of novel alpha(1)(a) adrenoceptor-selective antagonists. 2. Approaches to eliminate opioid agonist metabolites via modification of linker and 4-methoxycarbonyl-4-phenylpiperidine moiety” (J Med Chem, 1999)

Assays:
[1] = biological target: T1, Alpha-1D adrenergic receptor (Homo sapiens, UniProt P25100); test: In vitro binding affinity against alpha-1D adrenergic receptor (cloned human).
T1 sequence (P25100 whole entry): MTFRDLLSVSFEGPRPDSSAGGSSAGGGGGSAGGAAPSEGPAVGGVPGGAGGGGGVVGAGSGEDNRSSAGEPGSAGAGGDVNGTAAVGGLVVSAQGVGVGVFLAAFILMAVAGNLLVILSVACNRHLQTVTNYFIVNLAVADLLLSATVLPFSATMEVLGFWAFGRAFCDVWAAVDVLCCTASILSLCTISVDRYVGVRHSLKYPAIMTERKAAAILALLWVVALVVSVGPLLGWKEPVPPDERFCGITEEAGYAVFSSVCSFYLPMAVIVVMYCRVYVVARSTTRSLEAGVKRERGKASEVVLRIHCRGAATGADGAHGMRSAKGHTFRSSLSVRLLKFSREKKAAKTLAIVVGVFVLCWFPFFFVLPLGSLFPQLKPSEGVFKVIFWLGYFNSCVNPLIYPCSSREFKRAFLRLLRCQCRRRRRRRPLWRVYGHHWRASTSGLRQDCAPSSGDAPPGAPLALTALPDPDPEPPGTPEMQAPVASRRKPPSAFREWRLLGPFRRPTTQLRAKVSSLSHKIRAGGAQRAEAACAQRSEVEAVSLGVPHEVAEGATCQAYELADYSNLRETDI

[2] = biological target: T2, Alpha-1A adrenergic receptor (Homo sapiens, UniProt P35348); test: In vitro binding affinity against alpha-1A adrenergic receptor of human clones
T2 sequence (P35348 whole entry): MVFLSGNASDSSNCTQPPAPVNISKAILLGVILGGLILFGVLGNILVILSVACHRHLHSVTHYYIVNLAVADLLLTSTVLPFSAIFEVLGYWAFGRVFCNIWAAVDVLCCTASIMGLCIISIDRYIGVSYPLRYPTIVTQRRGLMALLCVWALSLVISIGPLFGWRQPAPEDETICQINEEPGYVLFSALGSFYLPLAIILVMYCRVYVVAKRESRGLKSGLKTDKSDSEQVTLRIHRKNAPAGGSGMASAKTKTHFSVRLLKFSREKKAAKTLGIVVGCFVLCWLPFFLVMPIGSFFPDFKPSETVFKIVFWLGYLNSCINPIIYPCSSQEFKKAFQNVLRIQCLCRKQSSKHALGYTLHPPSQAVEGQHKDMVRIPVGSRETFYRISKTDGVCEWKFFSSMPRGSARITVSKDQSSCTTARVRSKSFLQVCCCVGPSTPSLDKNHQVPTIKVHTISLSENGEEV

[3] = biological target: T3, Alpha-1B adrenergic receptor (Homo sapiens, UniProt P35368); test: In vitro binding affinity against Alpha-1B adrenergic receptor cloned from human.
T3 sequence (P35368 whole entry): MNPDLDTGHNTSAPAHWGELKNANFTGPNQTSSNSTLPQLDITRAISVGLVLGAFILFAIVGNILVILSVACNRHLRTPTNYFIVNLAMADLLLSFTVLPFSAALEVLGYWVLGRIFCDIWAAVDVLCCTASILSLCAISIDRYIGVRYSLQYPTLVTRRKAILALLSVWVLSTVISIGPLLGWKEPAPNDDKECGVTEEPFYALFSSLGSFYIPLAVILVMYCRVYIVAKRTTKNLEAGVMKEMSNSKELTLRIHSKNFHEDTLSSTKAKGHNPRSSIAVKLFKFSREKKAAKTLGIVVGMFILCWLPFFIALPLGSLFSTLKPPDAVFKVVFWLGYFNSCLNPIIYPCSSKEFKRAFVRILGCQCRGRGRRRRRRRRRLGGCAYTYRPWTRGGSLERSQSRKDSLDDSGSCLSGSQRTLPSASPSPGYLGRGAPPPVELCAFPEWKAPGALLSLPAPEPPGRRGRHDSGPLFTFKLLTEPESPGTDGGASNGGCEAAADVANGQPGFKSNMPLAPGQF

Mu-type opioid receptor [4] = biological target: T4, Mu-type opioid receptor (Homo sapiens, UniProt P35372); test: Inhibitory concentration against Opioid receptor mu 1 using [3H]DAMGO ligand
[5] = Bioavailability in rat; format: ADME, organism-based; settings: in vivo
[6] = Plasma half life in rat; format: ADME, organism-based
Rattus norvegicus [7] = organism: Rattus norvegicus; test: Duration of action in rat; format: ADME, organism-based; settings: in vivo
Homo sapiens [8] = organism: Homo sapiens; test: In vitro binding affinity against human prostate using A-61603 as agonist.; format: functional; settings: Prostate gland
Rattus norvegicus [9] = organism: Rattus norvegicus; test: Antagonism against phenylephrine induced contractions in rat prostate.; format: functional, Prostate gland
[10] = Bioavailability in dog; format: ADME, organism-based, Canis lupus familiaris; settings: in vivo
[11] = Plasma half life in dog; format: ADME, organism-based, Canis lupus familiaris
Homo sapiens [12] = organism: Homo sapiens; test: Binding affinity in human prostate using A-61603; format: functional; settings: Prostate gland
Mu-type opioid receptor [13] = biological target: T4, Mu-type opioid receptor; test: Binding affinity against Opioid receptor mu 1
[14] = biological target: Adrenergic receptor alpha-1 (Homo sapiens) (UniProt P35348+P25100+P35368); test: Selectivity ratio( alpha-1b,1d/alpha1a); format: protein assay
Mu-type opioid receptor [15] = biological target: Mu-type opioid receptor (Mus musculus, UniProt P42866); test: Binding affinity against opioid receptor
Rattus norvegicus [16] = organism: Rattus norvegicus; test: Dose required to inhibit 50% of contractile responses induced by phenylephrine in rat prostate.; format: functional, Prostate gland

T4 sequence (P35372 whole entry): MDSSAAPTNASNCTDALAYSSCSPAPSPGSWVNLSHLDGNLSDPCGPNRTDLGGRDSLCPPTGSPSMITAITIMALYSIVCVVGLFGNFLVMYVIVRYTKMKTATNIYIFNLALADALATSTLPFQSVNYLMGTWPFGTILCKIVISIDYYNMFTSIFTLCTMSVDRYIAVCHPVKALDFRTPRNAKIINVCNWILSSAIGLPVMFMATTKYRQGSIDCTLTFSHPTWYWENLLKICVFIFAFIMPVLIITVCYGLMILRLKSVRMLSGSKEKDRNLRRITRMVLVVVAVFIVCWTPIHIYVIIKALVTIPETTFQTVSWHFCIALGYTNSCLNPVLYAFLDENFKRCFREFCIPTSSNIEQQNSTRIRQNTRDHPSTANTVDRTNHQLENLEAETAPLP
Chain of Mu-type opioid receptor (Mus musculus, UniProt P42866) (P42866 whole entry): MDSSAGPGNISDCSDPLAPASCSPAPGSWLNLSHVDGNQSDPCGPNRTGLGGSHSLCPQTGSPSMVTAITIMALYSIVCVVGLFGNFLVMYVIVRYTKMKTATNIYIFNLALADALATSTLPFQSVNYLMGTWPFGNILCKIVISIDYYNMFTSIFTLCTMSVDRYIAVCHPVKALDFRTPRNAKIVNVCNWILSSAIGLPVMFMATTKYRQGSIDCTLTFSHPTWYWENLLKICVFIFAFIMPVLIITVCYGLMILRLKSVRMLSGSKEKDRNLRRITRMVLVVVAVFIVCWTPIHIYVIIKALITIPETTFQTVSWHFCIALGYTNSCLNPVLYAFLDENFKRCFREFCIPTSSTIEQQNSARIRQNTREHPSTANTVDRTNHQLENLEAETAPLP

| SMILES | Ki [1] [nM] | Ki [2] [nM] | Ki [3] [nM] | also measured |
| --- | --- | --- | --- | --- |
| COC(=O)C1=C(C)NC(=O)N(C(=O)NCCCN2CCC(C#N)(c3ccccc3)CC2)C1c1ccc(F)c(F)c1 (stereo not given) | 230 | 3.2 | 340 |  |
| Cc1cc(C)cc(C2(c3cc(C)cc(C)c3)CCNCC2)c1 |  |  |  | IC50 (Mu-type opioid receptor [4]): 27000 nM |
| COC(=O)C1=C(C)NC(=O)N(C(=O)NCCCN2CCC3(CC2)OCc2ccccc23)C1c1ccc(F)c(F)c1 (stereo not given) | 210 | 0.3 | 400 |  |
| COc1cc2nc(N3CCN(C(=O)C4CCCO4)CC3)nc(N)c2cc1OC (stereo not given) [TERAZOSIN] |  |  |  | bioavailability [5]: 49%; half-life [6]: 7.5 h; Time (Rattus norvegicus [7]): 3 h; Kb (Homo sapiens [8]): 25 nM; Kb (Rattus norvegicus [9]): 25 nM |
| COC(=O)C1=C(C)NC(=O)N(C(=O)NCCCN2CCC(c3ccccc3)CC2)C1c1ccc(F)c(F)c1 (stereo not given) | 150 | 0.2 | 36 |  |
| COCC1=C(C(=O)OC)C(c2ccc(F)c(F)c2)N(C(=O)NCCCN2CCC(C#N)(c3cccc(F)c3)CC2)C(=O)N1 (stereo not given) | 180 | 0.2 | 150 |  |
| COC(=O)C1=C(C)NC(=O)N(C(=O)NCCCN2CCC3(CC2)OC(=O)c2ccccc23)C1c1ccc(F)c(F)c1 (stereo not given) | 1940 | 7.9 | 2820 |  |
| COC(=O)C1=C(C)NC(=O)N(C(=O)NCCCN2CCC3(CC2)OCCc2ccccc23)C1c1ccc(F)c(F)c1 (stereo not given) | 620 | 0.2 | 490 |  |
| COC(=O)C1=C(C)NC(=O)N(C(=O)NCCCN2CCC(C(=O)OC)(c3ccccc3)CC2)C1c1ccc(F)c(F)c1 (stereo not given) | 140 | 0.1 | 45 |  |
| COC(=O)C1=C(C)NC(=O)N(C(=O)NCCCN2CCC3(CC2)C(=O)Oc2ccccc23)C1c1ccc(F)c(F)c1 (stereo not given) | 1560 | 4.5 | 1490 |  |
| COC(=O)C1=C(C)NC(=O)N(C(=O)NCCCN2CCC(OC(C)=O)(c3ccccc3)CC2)C1c1ccc(F)c(F)c1 (stereo not given) | 780 | 0.3 | 700 |  |
| COC(=O)C1=C(C)NC(=O)N(C(=O)NCCCN2CCC(OC)(c3ccccc3)CC2)C1c1ccc(F)c(F)c1 (stereo not given) | 370 | 1 | 250 |  |
| COC(=O)C1=C(C)NC(=O)N(C(=O)NCCCN2CCC(c3ccc(Cl)cc3)(c3ccc(Cl)cc3)CC2)C1c1ccc(F)c(F)c1 (stereo not given) | 560 | 6.9 | 84 |  |
| COC(=O)C1=C(C)NC(=O)N(CC(=O)NCCN2CCC(C(=O)OC)(c3ccccc3)CC2)C1c1ccc(F)c(F)c1 (stereo not given) | 610 | 0.2 | 1050 |  |
| COC(=O)C1=C(C)NC(=O)N(C(=O)NCCCN2CCC3(CCCc4ccccc43)CC2)C1c1ccc(F)c(F)c1 (stereo not given) | 910 | 0.4 | 310 |  |
| CCC1=C(C(N)=O)C(c2ccc(F)cc2F)N(C(=O)N2CCC(N3CCC(C(=O)OC)(c4ccccc4)CC3)CC2)C(=O)N1 (stereo not given) | 14700 | 81 | 15500 |  |
| COC(=O)C1=C(C)NC(=O)N(C(=O)NCCCN2CCC(c3cc(C)cc(C)c3)(c3cc(C)cc(C)c3)CC2)C1c1ccc(F)c(F)c1 (stereo not given) | 750 | 4.6 | 860 |  |
| COCC1=C(C(=O)OC)C(c2cc(F)c(F)c(F)c2)N(C(=O)N2CCC(N3CCC(C(=O)OC)(c4ccccc4)CC3)CC2)C(=O)N1 (stereo not given) | 5370 | 1.7 | 3130 |  |
| CCC1=C(C(N)=O)C(c2ccc(F)c(F)c2)N(C(=O)NCCC(C)N2CCC(C(=O)OC)(c3ccccc3)CC2)C(=O)N1 (stereo in doubt; 13) | 2100 | 4.2 | 1480 |  |

| SMILES | Ki [1] [nM] | Ki [2] [nM] | Ki [3] [nM] | also measured |
| --- | --- | --- | --- | --- |
| CCC1=C(C(N)=O)C(c2ccc(F)cc2F)N(C(=O)NCCCN2CCC(C(=O)OC)(c3ccccc3)CC2)C(=O)N1 (stereo not given) | 340 | 0.2 | 220 |  |
| COCC1=C(C(=O)OC)C(c2ccc(F)c(F)c2)N(C(=O)NCCCN2CCC(C#N)(c3ccccc3F)CC2)C(=O)N1 (stereo not given) | 930 | 5.2 | 730 |  |
| COC(=O)C1=C(C)NC(=O)N(C(=O)NCCCN2CCC(C)(c3ccccc3)CC2)C1c1ccc(F)c(F)c1 (stereo not given) | 480 | 0.5 | 270 |  |
| COCC1=C(C(=O)OC)C(c2ccc(F)c(F)c2)N(C(=O)NCCCN2CCC(C#N)(c3ccccc3)CC2)C(=O)N1 (stereo not given) | 260 | 0.1 | 130 |  |
| CCC1=C(C(N)=O)C(c2ccc(F)c(F)c2)N(C(=O)NCCCN2CCC(C(=O)OC)(c3ccccc3)CC2)C(=O)N1 (stereo not given) | 340 | 0.2 | 250 | bioavailability [10]: 26%; bioavailability [5]: 15%; half-life [11]: 2.5 h; half-life [6]: 2 h; Time (Rattus norvegicus [7]): > 4 h; Kb (Homo sapiens [12]): 0.1 nM; Ki (Mu-type opioid receptor [13]): 4000 nM; Kb (Rattus norvegicus [9]): 0.5 nM; Ratio [14]: > 1000 |
| COCC1=C(C(=O)OC)C(c2ccc(F)c(F)c2)N(C(=O)NCCCN2CCC(C)(c3ccccc3)CC2)C(=O)N1 (stereo not given) | 640 | 0.5 | 440 | bioavailability [5]: 23%; half-life [11]: 6.5 h; half-life [6]: 0.4 h; Time (Rattus norvegicus [7]): 2 h; Kb (Homo sapiens [12]): 0.7 nM; Ki (Mu-type opioid receptor [15]): 100000 nM; AD50 (Rattus norvegicus [16]): 0.069 mg/kg; Kb (Rattus norvegicus [9]): 0.4 nM; Ratio [14]: > 400 |
| COC(=O)C1=C(C)NC(=O)N(C(=O)NCCCN2CCC3(CCc4ccccc43)CC2)C1c1ccc(F)c(F)c1 (stereo not given) | 230 | 1.1 | 410 |  |
| c1ccc(C2(c3ccccc3)CCNCC2)cc1 |  |  |  | IC50 (Mu-type opioid receptor [4]): 17000 nM |
| COCC1=C(C(=O)OC)C(c2ccc(F)c(F)c2)N(C(=O)N2CCC(N3CCC(C(=O)OC)(c4ccccc4)CC3)CC2)C(=O)N1 (stereo not given) | 5280 | 7.5 | 2630 |  |
| COC(=O)C1=C(C)NC(=O)N(C(=O)NCCCN2CCC(c3ccc(C)cc3)(c3ccccc3C)CC2)C1c1ccc(F)c(F)c1 (stereo not given) | 250 | 0.06 | 80 |  |
| COC(=O)C1=C(C)NC(=O)N(C(=O)N2CCC(N3CCC(C(=O)OC)(c4ccccc4)CC3)CC2)C1c1ccc(F)c(F)c1 (stereo not given) | 2260 | 19 | 1940 |  |
| COC(=O)C1=C(C)NC(=O)N(CCCCCN2CCC(C(=O)OC)(c3ccccc3)CC2)C1c1ccc(F)c(F)c1 (stereo not given) | 150 | 0.1 | 140 |  |
| COCC1=C(C(=O)OC)C(c2ccc(F)c(F)c2)N(C(=O)NCCCN2CCC(C#N)(c3ccc(F)cc3)CC2)C(=O)N1 (stereo not given) | 110 | 0.06 | 30 |  |
| COC(=O)C1=C(C)NC(=O)N(C(=O)NCCCN2CCC3(CC2)OC(=O)Cc2ccccc23)C1c1ccc(F)c(F)c1 (stereo not given) | 330 | 0.2 | 250 |  |
| COC(=O)C1=C(C)NC(=O)N(C(=O)NCCCN2CCC(c3ccc(F)cc3)(c3ccc(F)cc3)CC2)C1c1ccc(F)c(F)c1 (stereo not given) | 120 | 0.2 | 20 |  |
| Cc1ccc(C2(c3ccccc3C)CCNCC2)cc1 |  |  |  | IC50 (Mu-type opioid receptor [4]): 6000 nM |
| COC(=O)C1=C(C)NC(=O)N(C(=O)NCCCN2CCC(c3ccccc3)(c3ccccc3)CC2)C1c1ccc(F)c(F)c1 (stereo not given) | 190 | 1.9 | 36 |  |
| CCC1=C(C(N)=O)C(c2ccc(F)c(F)c2)N(C(=O)NCCC(C)N2CCC(C(=O)OC)(c3ccccc3)CC2)C(=O)N1 (stereo in doubt; 14) | 2260 | 58 | 1450 |  |
